Our source for the inhibition values is patent publication US8232288B2, “Substituted benzimidazoles, benzothiazoles and benzoxazoles” (Gruenenthal GmbH, priority 2009, dated 2012).

In assay [1] the target is T1, B1R receptor of the rat (rB1R) (Rattus norvegicus, UniProt P97583).
T1 construct: expressed in transfected cells; host or cells: CHO K1 cells
T1 sequence (P97583 1-337): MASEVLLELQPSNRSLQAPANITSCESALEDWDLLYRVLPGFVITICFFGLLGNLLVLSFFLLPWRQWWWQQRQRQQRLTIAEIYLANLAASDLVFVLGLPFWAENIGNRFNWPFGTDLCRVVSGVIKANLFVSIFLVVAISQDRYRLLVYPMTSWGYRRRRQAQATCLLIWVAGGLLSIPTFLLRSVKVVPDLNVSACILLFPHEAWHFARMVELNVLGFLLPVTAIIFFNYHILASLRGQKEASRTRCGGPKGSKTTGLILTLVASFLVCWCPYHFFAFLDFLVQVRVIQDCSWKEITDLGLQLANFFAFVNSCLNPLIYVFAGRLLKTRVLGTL
The assay can be described thus: Functional investigation on the bradykinin receptor 1 (B1R), FLIPR Ca2+ assay, rB1R cells. It counts as cell-based. The method, then:
(§1) The agonistic or antagonistic action of substances can be quantified on the bradykinin receptor 1 (B1R) of the human and rat species with ectopically expressing cell lines (CHO K1 cells) and with the aid of a Ca^2+-sensitive dyestuff (Fluo-4) in a fluorescent imaging plate reader (FLIPR). The figure in % activation is based on the Ca^2+ signal after addition of Lys-Des-Arg^9-bradykinin (0.5 nM) or Des-Arg^9-bradykinin (100 nM). Antagonists lead to a suppression of the Ca^2+ inflow after addition of the agonist. % inhibition compared with the maximum achievable inhibition is stated.
(§2) The agonistic or antagonistic action of substances can be determined on the bradykinin receptor 1 (B1R) of the human and rat species with the following assay. In accordance with this assay, the Ca^2+ inflow through the channel is quantified with the aid of a Ca^2+-sensitive dyestuff (type Fluo-4, Molecular Probes Europe BV, Leiden Holland) in a fluorescent imaging plate reader (FLIPR, Molecular Devices, Sunnyvale, USA).
(§3) Chinese hamster ovary cells (CHO K1 cells) transfected stably with the human B1R gene (hB1R cells) or the B1R gene of the rat (rB1R cells) are used. For functional studies, these cells are plated out on black 96-well plates with a clear base (BD Biosciences, Heidelberg, Germany or Greiner, Frickenhausen, Germany) in a density of 20,000-35,000 cells/well. The cells are left overnight at 37° C. and 5% CO2 in culture medium (hB1R cells: Nutrient Mixture Ham's F12, Gibco Invitrogen GmbH, Karlsruhe, Germany or DMEM, Sigma-Aldrich, Taufkirchen, Germany; rB1R cells: D-MEM/F12, Gibco Invitrogen GmbH, Karlsruhe, Germany) with 10 vol. % FBS (foetal bovine serum, Gibco Invitrogen GmbH, Karlsruhe, Germany or PAN Biotech GmbH, Aidenbach, Germany). On the following day, the cells are loaded for 60 min at 37° C. with 2.13 μM Fluo-4 (Molecular Probes Europe BV, Leiden Holland) in HBSS buffer (Hank's buffered saline solution, Gibco Invitrogen GmbH, Karlsruhe, Germany) with 2.5 mM probenecid (Sigma-Aldrich, Taufkirchen, Germany) and 10 mM HEPES (Sigma-Aldrich, Taufkirchen, Germany). The plates are then washed 2× with HBSS buffer, and HBSS buffer which additionally contains 0.1% BSA (bovine serum albumin; Sigma-Aldrich, Taufkirchen, Germany), 5.6 mM glucose and 0.05% gelatine (Merck KGaA, Darmstadt, Germany) is added. After a further incubation of 20 minutes at room temperature, the plates are inserted into the FLIPR for the Ca^2+ measurement.
(§4) Alternatively, the plates are washed with buffer A (15 mM HEPES, 80 mM NaCl, 5 mM KCl, 1.2 mM CaCl2, 0.7 mM MgSO4, 2 g/l glucose, 2.5 mM probenecid), buffer A is added and the plates are loaded with 2.5 μM Fluo-4 and 0.025% Pluronic F127 (Sigma-Aldrich, Taufkirchen, Germany). Thereafter, the cells are washed 2× with buffer A and incubated for 30 minutes at room temperature with buffer A, which additionally contains 0.05% BSA and 0.05% gelatine, and thereafter inserted into the FLIPR for the Ca^2+ measurement.
(§5) The Ca^2+-dependent fluorescence is measured here before and after addition of substances (λex=488 nm, λem=540 nm). Quantification is by measurement of the highest fluorescence intensity (FC, fluorescence counts) over time.
(§6) The FLIPR protocol consists of 2 additions of substance. Test substances (10 μM) are first pipetted on to the cells and the Ca^2+ inflow is compared with the control (hB1R: Lys-Des-Arg^9-bradykinin>=50 nM; rB1R: Des-Arg^9-bradykinin 10 μM). This gives the result in % activation based on the Ca^2+ signal after addition of Lys-Des-Arg^9-bradykinin (>=50 nM) or Des-Arg^9-bradykinin (10 μM). After incubation for 10-20 minutes, Lys-Des-Arg^9-bradykinin (hB1R) or Des-Arg^9-bradykinin (rB1R) in the concentration of the EC80 is applied and the inflow of Ca^2+ is likewise determined. Antagonists lead to a suppression of the Ca^2+ inflow. % inhibition compared with the maximum achievable inhibition is calculated.
(§7) In order to determine the IC50 value, the substances are added in various concentrations. […]

Assay [2] concerns the target T2, human B1R receptor (hB1R) (Homo sapiens, UniProt P46663).
T2 construct: expressed in transfected cells; host or cells: CHO K1 cells
T2 sequence (P46663 1-353): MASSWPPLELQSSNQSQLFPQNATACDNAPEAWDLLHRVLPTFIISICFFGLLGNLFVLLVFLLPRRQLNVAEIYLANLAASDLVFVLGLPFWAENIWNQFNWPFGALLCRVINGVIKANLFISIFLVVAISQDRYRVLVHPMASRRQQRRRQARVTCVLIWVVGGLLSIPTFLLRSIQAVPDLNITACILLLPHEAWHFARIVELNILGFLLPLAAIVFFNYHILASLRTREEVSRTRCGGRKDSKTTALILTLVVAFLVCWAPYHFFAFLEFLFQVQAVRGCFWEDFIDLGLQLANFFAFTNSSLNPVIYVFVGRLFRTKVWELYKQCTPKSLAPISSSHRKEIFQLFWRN
The assay is described as follows: Functional investigation on the bradykinin receptor 1 (B1R), FLIPR Ca2+ assay, hB1R cells. The assay is classed as cell-based. The method, then: as §1, §2, §3, §4, §5, §6, §7

Regarding `COc1cc(C)c(S(=O)(=O)N(C)Cc2nc3ccc(C(=O)N4CCC5(CC4)CCN(c4ccncc4)CC5)cc3[nH]2)c(C)c1` [I_22, 4-methoxy-N,2,6-trimethyl-N-[[6-(9-pyridin-4-yl-3,9-diazaspiro[5.5]undecane-3-carbonyl)-1H-benzoimidazol-2-yl]-methyl]-benzenesulfonic acid amide], the results for the inhibition at 10 µM in assay [1] and in assay [2] were 103% and 100%, respectively.
The corresponding values for `Cc1cccc(Cl)c1S(=O)(=O)N(C)Cc1nc2ccc(C(=O)N3CCC4(CC3)CCN(c3ccncc3)CC4)cc2[nH]1` [I_23, 2-chloro-N,6-dimethyl-N-[[6-(9-pyridin-4-yl-3,9-diazaspiro[5.5]undecane-3-carbonyl)-1H-benzoimidazol-2-yl]-methyl]-benzenesulfonic acid amide] are 101% and 100%.
For `CN(Cc1nc2ccc(C(=O)N3CCC4(CC3)CCN(c3ccncc3)CC4)cc2[nH]1)S(=O)(=O)c1ccccc1C(F)(F)F` [I_24, N-methyl-N-[[6-(9-pyridin-4-yl-3,9-diazaspiro[5.5]undecane-3-carbonyl)-1H-benzoimidazol-2-yl]-methyl]-2-(trifluoromethyl)-benzenesulfonic acid amide], in that order: 102% and 100%.
For `CN(Cc1nc2ccc(C(=O)N3CCC4(CC3)CCN(c3ccncc3)CC4)cc2[nH]1)S(=O)(=O)c1cccc2ccccc12` [I_25, N-methyl-N-[[6-(9-pyridin-4-yl-3,9-diazaspiro[5.5]undecane-3-carbonyl)-1H-benzoimidazol-2-yl]-methyl]-naphthalene-1-sulfonic acid amide], in that order: 96% and 95%.
As for `COc1cc(C)c(S(=O)(=O)N(C)CCc2nc3ccc(C(=O)N4CCC5(CC4)CCN(c4ccncc4)CC5)cc3[nH]2)c(C)c1` [I_26, 4-methoxy-N,2,6-trimethyl-N-[2-[6-(9-pyridin-4-yl-3,9-diazaspiro[5.5]undecane-3-carbonyl)-1H-benzoimidazol-2-yl]-ethyl]-benzenesulfonic acid amide], the values for the inhibition at 10 µM in assay [1] and in assay [2] were 103% and 98%, respectively.
The corresponding values for `COc1cc(C)c(S(=O)(=O)N(C)Cc2nc3cccc(C(=O)N4CCC5(CC4)CC(c4ccncc4)=NO5)c3[nH]2)c(C)c1` [I_27, 4-methoxy-N,2,6-trimethyl-N-[[7-(3-pyridin-4-yl-1-oxa-2,8-diazaspiro[4.5]dec-2-ene-8-carbonyl)-1H-benzoimidazol-2-yl]-methyl]-benzenesulfonic acid amide] are 94% and 93%.
For `Cc1cc(S(=O)(=O)N(C)Cc2nc3cccc(C(=O)N4CCC5(CC4)CCN(c4ccncc4)CC5)c3[nH]2)c(C)cc1Cl` [I_CC-01, 4-chloro-N,2,5-trimethyl-N-[[7-(3-pyridin-4-yl-3,9-diazaspiro[5.5]undecane-9-carbonyl)-1H-benzoimidazol-2-yl]-methyl]-benzenesulfonic acid amide], in that order: 92% and 96%.
The corresponding values for `CN(Cc1nc2cccc(C(=O)N3CCC4(CC3)C(=O)NCC4c3ccncc3)c2[nH]1)C(=O)c1ccccc1Cl` (stereo not shown) [I_CC-02, 2-chloro-N-methyl-N-[[7-(4-oxo-1-pyridin-4-yl-3,8-diazaspiro[4.5]decane-8-carbonyl)-1H-benzoimidazol-2-yl]-methyl]-benzamide] are 46% and 10%.
For `COc1cc(C)c(S(=O)(=O)N(C)Cc2nc3cccc(C(=O)N4CCC5(CC4)CCN(c4ccncc4)CC5)c3[nH]2)c(C)c1` [I_CC-03, 4-methoxy-N,2,6-trimethyl-N-[[7-(3-pyridin-4-yl-3,9-diazaspiro[5.5]undecane-9-carbonyl)-1H-benzoimidazol-2-yl]-methyl]-benzenesulfonic acid amide], the inhibition at 10 µM in assay [1] and in assay [2] was 100% each time.
Regarding `CN(Cc1nc2cccc(C(=O)N3CCC4(CC3)CCN(c3ccncc3)CC4)c2[nH]1)C(=O)c1ccccc1Cl` [I_CC-04, 2-chloro-N-methyl-N-[[7-(3-pyridin-4-yl-3,9-diazaspiro[5.5]undecane-9-carbonyl)-1H-benzoimidazol-2-yl]-methyl]-benzamide], the inhibition at 10 µM in assay [1] worked out at 102%; in assay [2], 65%.
The corresponding values for `CN(Cc1nc2cccc(C(=O)N3CCC4(CC3)CCN(c3ccncc3)CC4)c2[nH]1)C(=O)c1sccc1Cl` [I_CC-05, 3-chloro-N-methyl-N-[[7-(3-pyridin-4-yl-3,9-diazaspiro[5.5]undecane-9-carbonyl)-1H-benzoimidazol-2-yl]-methyl]-thiophene-2-carboxylic acid amide] are 93% and 30%.
The corresponding values for `COc1cc(C)c(S(=O)(=O)N(C)Cc2nc3cccc(C(=O)N4CCC5(CC4)CCN(c4ccncc4)C5)c3[nH]2)c(C)c1` [I_CC-06, 4-methoxy-N,2,6-trimethyl-N-[[7-(3-pyridin-4-yl-3,8-diazaspiro[4.5]decane-8-carbonyl)-1H-benzoimidazol-2-yl]-methyl]-benzenesulfonic acid amide] are 102% and 100%.
The corresponding values for `Cc1cccc(Cl)c1S(=O)(=O)N(C)Cc1nc2cccc(C(=O)N3CCC4(CC3)CCN(c3ccncc3)C4)c2[nH]1` [I_CC-07, 2-chloro-N,6-dimethyl-N-[[7-(3-pyridin-4-yl-3,8-diazaspiro[4.5]decane-8-carbonyl)-1H-benzoimidazol-2-yl]-methyl]-benzenesulfonic acid amide] are 97% and 100%.
With `CN(Cc1nc2cccc(C(=O)N3CCC4(CC3)CCN(c3ccncc3)C4)c2[nH]1)C(=O)c1ccccc1Cl` [I_CC-08, 2-chloro-N-methyl-N-[[7-(3-pyridin-4-yl-3,8-diazaspiro[4.5]decane-8-carbonyl)-1H-benzoimidazol-2-yl]-methyl]-benzamide], the inhibition at 10 µM in assay [1] is 64%; in assay [2], 26%.
